One may read the Ki as a measure of affinity in units of concentration, obtained from inhibition or displacement.

Among the data in ChEMBL document CHEMBL1154937, “Radiosynthesis of novel carbon-11-labeled triaryl ligands for cannabinoid-type 2 receptor” (Bioorg Med Chem Lett, 2010) are Drug uptake and Ki values, retold here.

The structures appear in SMILES notation.

The subject of data set [1] is Blood. In words: Drug uptake in […] blood at 8 MBq/200 mL, iv after 30 mins. It counts as ADME, organism-based. Particulars: in vivo, 0.5 h.
Data set [2] has as its system Blood. The data set can be described thus: Drug uptake in […] blood at 8 MBq/200 mL, iv after 15 mins. The class given is ADME, organism-based. Particulars: in vivo, 0.25 h.
Data set [3] deals with Brain. In words: Drug uptake in […] brain at 8 MBq/200 mL, iv after 1 min. Particulars: in vivo. The class given is ADME, organism-based.
Data set [4] concerns Blood. In words: Drug uptake in […] blood at 8 MBq/200 mL, iv after 1 min. It counts as ADME, organism-based. The note with it: in vivo.
Data set [5] has as its system Blood. In words: Drug uptake in […] blood at 8 MBq/200 mL, iv after 60 mins. The note with it: in vivo, 1 h. The class given is ADME, organism-based.
Data set [6] relates to Brain. The data set can be described thus: Drug uptake in […] brain at 8 MBq/200 mL, iv after 5 mins. It counts as ADME, organism-based. The note with it: in vivo.
In data set [7] the test system is Brain. In words: Drug uptake in […] brain at 8 MBq/200 mL, iv after 60 mins. The class given is ADME, organism-based. The note with it: in vivo, 1 h.
The subject of data set [8] is Brain. In words: Drug uptake in […] brain at 8 MBq/200 mL, iv after 15 mins. The class given is ADME, organism-based. The note with it: in vivo, 0.25 h.
Data set [9] concerns Brain. In words: Drug uptake in […] brain at 8 MBq/200 mL, iv after 30 mins. It counts as ADME, organism-based. The note with it: in vivo, 0.5 h.
Data set [10] concerns the target T1, Cannabinoid receptor 2 (Rattus norvegicus, UniProt Q9QZN9).
T1 sequence (Q9QZN9 whole entry): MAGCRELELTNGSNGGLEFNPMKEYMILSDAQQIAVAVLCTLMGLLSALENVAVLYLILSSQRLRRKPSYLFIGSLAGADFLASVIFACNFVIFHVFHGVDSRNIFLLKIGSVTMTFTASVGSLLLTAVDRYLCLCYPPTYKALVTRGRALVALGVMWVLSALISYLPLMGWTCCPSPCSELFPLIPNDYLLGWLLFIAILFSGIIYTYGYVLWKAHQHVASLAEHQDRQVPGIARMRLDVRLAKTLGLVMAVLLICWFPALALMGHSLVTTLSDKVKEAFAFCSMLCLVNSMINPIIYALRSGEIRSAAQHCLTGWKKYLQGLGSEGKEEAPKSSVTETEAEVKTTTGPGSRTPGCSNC
In words: Binding affinity to rat brain CB2 receptor.

In data set [11] the test system is Blood. In words: Drug uptake in […] blood at 8 MBq/200 mL, iv after 5 mins. It counts as ADME, organism-based. Particulars: in vivo.
Data set [12] deals with Cannabinoid receptor 2 (Homo sapiens, UniProt P34972). In words: Binding affinity to human CB2 receptor.
Cannabinoid receptor 2 (Homo sapiens, UniProt P34972), sequence (P34972 whole entry): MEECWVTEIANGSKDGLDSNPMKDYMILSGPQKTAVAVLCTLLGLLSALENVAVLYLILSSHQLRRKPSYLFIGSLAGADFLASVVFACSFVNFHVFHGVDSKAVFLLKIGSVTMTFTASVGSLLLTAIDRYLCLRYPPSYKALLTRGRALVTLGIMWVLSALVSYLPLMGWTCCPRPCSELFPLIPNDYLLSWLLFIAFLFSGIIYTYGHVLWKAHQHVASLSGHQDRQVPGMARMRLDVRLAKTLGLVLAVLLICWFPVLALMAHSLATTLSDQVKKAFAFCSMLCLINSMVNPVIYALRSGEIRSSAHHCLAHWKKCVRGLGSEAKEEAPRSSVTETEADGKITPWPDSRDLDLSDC
The target in a further data set is Cannabinoid receptor 1 (Homo sapiens, UniProt P21554). In words: Binding affinity to CB1 receptor.
Cannabinoid receptor 1, sequence (P21554 whole entry): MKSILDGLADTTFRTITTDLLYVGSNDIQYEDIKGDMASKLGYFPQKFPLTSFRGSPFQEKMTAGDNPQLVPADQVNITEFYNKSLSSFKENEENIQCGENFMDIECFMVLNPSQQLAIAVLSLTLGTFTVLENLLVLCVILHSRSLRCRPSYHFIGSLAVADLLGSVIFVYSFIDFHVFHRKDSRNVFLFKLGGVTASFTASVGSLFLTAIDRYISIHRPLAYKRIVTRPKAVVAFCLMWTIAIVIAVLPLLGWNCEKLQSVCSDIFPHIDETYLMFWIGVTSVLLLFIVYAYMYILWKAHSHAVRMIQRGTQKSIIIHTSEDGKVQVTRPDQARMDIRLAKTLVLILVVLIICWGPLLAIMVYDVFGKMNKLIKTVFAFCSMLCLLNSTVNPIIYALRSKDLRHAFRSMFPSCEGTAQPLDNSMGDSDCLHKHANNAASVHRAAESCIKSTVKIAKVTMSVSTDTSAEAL

`[11CH3]Oc1cc(C(=O)c2cccs2)cc(O)c1-c1cc(Cl)cc(Cl)c1`: the Drug uptake in the data set on Blood [1] stood at 0.36%; with Blood [2], 0.63%; with Brain [3], 1.54%; with Blood [4] it was 1.56%; in the data set on Blood [5] it was 0.21%; with Brain [6], 1.63%. Further, the Drug uptake in the data set on Brain [7] is 0.18%; in the data set with Brain [8] it was 1.01%; in the data set with Brain [9], 0.56%; with Blood [11], 1%. Also, the Ki at Cannabinoid receptor 2 [10] is 2.32 nM.
Turning to `COc1cc(C(O)c2cccs2)cc(O[11CH3])c1-c1cc(Cl)cc(Cl)c1` (stereo unspecified), the Drug uptake in the data set with Blood [1] was determined as 2.38%; in the data set on Blood [2], 2.25%; in the data set with Brain [3], 1.93%; with Blood [4], 3.9%; with Blood [5], 2.27%; with Brain [6], 1.87%. For the same compound, the Drug uptake in the data set on Brain [7] turned out to be 0.65%; with Brain [8], 1.5%; in the data set with Brain [9], 1.09%; in the data set on Blood [11], 2.12%. Besides, the Ki on Cannabinoid receptor 2 [10] amounted to 0.27 nM.
In turn, `CCCCOc1c(O[11CH3])ccc2cc(C(=O)NC3CCCCC3)c(=O)[nH]c12` yielded a Ki at Cannabinoid receptor 2 [12] of 9.6 nM.
Regarding `COc1cc(C(=O)c2cccs2)cc(O[11CH3])c1-c1cc(Cl)cc(Cl)c1`, the Drug uptake in the data set on Blood [1] was determined as 3.42%; in the data set on Blood [2], 3.45%; with Brain [3], 1.2%; in the data set with Blood [4], 2.71%; in the data set with Blood [5] it was 3.38%; with Brain [6], 1.29%. The Drug uptake in the data set on Brain [7] was found to be 0.62%; in the data set on Brain [8], 1.1%; in the data set with Brain [9] it was 0.85%; in the data set on Blood [11], 2.93%.
For `COc1cc(C(O)c2cccs2)cc(OC)c1-c1cc(Cl)cc(Cl)c1` (stereo unspecified), the Ki at Cannabinoid receptor 1 was over 1000 nM.
As for `COc1ccc(S(=O)(=O)c2ccc(C(C)NS(C)(=O)=O)cc2)c(S(=O)(=O)c2ccc(O[11CH3])cc2)c1` (stereo unspecified), the Ki at Cannabinoid receptor 2 [12] was 4.5 nM.
As to `CCCCOc1c(OCC[18F])ccc2cc(C(=O)NC3CCCCC3)c(=O)[nH]c12`, affinity at Cannabinoid receptor 2 [12] was put at a Ki of 35.8 nM.
For `[11CH3]Oc1cc(C(O)c2cccs2)cc(O)c1-c1cc(Cl)cc(Cl)c1` (stereo unspecified), the Drug uptake was 0.35% in the data set on Blood [1]; 0.7% in the data set with Blood [2]; 1.94% in the data set on Brain [3]; 2.2% in the data set with Blood [4]; 0.37% with Blood [5]; 2.07% in the data set with Brain [6]. Moreover, the Drug uptake in the data set on Brain [7] is reported as 0.45%; with Brain [8], 1.77%; with Brain [9], 0.96%; in the data set with Blood [11], 1.18%.
